In ChEMBL document CHEMBL1136737, “Virtual screening for submicromolar leads of tRNA-guanine transglycosylase based on a new unexpected binding mode detected by crystal structure analysis” (J Med Chem, 2003):

The compounds below were run against Queuine tRNA-ribosyltransferase (Zymomonas mobilis (strain ATCC 31821 / ZM4 / CP4), UniProt P28720) (assay: Inhibitory activity against eubacterial tRNA guanine transglycosylase (TGT) from Zymomonas mobilis).
Chain of Queuine tRNA-ribosyltransferase (P28720 whole entry): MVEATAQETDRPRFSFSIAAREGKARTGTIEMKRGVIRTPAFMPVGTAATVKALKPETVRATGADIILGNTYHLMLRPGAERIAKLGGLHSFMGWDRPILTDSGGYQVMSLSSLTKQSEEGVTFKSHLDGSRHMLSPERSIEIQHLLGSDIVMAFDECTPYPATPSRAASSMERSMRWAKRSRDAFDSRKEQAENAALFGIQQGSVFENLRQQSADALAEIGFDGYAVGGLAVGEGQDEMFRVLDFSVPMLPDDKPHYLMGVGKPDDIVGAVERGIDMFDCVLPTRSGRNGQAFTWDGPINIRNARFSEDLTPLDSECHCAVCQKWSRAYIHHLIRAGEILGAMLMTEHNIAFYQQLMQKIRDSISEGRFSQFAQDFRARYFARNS

Ki [µM]	SMILES
5	O=c1[nH][nH]c(=O)c2c(O)c3sccc3nc12
72	NNC(=O)c1cc2cc(F)ccc2[nH]1
0.6	Nc1nc2nccnc2c(=O)[nH]1 [PTERINE]
3.8	Nc1nc2nc(-c3ccccc3)cnc2c(=O)[nH]1
249	Nc1[nH]nc2nc(-c3ccccc3)[nH]c(=O)c12
156	Cc1ccc2[nH]c3nnc(N)c-3cc2c1
2.7	Nc1nc(O)c2[nH]c(SCc3ccc(Cl)cc3)nc2n1

More lines, now with the values behind:

SMILES	Ki [µM]
O=c1[nH][nH]c(=O)c2[nH]cnc12	200
Cc1cnc2nc(N)nc(O)c2n1	0.25
Cc1csc2c(O)c3c(=O)[nH][nH]c(=O)c3nc12	4.7
Nc1c2c(O)nc(O)cc2nn1CCO	8.1
Nc1cccc2c(=O)[nH][nH]c(=O)c12	36
Nc1nc(O)c2[nH]c(N3CCCCC3)nc2n1	37
